Where two headings read alike, the source gives them in different places. Square brackets hold non-standard residues; d marks the D form. Peptide text beside a SMILES is read from it. * marks the point of attachment. Bz = O=C(c1ccccc1)*
Legend:
human neutrophils [1] = assay: cells; assay type: cell-based; settings: for IC50: Neutrophil
Excerpt: Tables 5 and 6 explore whether there is an anti-inflamatory effect in the dipeptide derivatives. Because ferricytochrome c cannot penetrate cell membranes, it reacts with superoxide anion extracellularly. Also, there are absorptive reactions at 550 nm, and differences among the absorptive reactions can be used to evaluate the influence on the release of superoxide anion. The elastase is released by degranulation as the neutrophil is activated. Tables 5 and 6 use the substrate, MeO-Suc-Ala-Ala-Pro-Val-p-nitroanilide, with the specificity for reacting with the elastase so as to evaluate the influence of the candidate compound on the elastase release.
Blood was taken from healthy human donors (20-32 years old) by venipuncture, following a protocol approved by the Institutional Review Board at Chang Gung Memorial Hospital. Neutrophils were isolated by a standard method of dextran sedimentation prior to centrifugation in a Ficoll Hypaque gradient and the hypotonic lysis of erythrocytes.
The evaluation of O2.^− generation was based on the SOD-inhibitable reduction of ferricytochrome c. In brief, after supplementation with 0.5 mg ml^−1 ferricytochrome c and 1 mM Ca^2+, neutrophils were equilibrated at 37° C. for 2 min and incubated with drugs […].

human neutrophils [2] = assay: Cytotoxic test: lactate dehydrogenase (LDH) release from human neutrophils; assay type: cell-based
Protocol: FIGS. 1(a)-1(b) show the influences of HCH6-1 on releasing lactate dehydrogenase (LDH) from human neutrophils under the following experimental conditions. The suspension of neutrophils was reacted with different concentrations of candidate compounds for 15 min, or fixed concentrations of candidate compounds for various times. Also, 0.1% Triton X-100 was added to react for 30 min as a release amount of total lactate dehydrogenase (Total LDH), wherein the supernatant was subjected to centrifugation for 8 min, at 200 g and at 4° C., and then a lactate dehydrogenase reagent was added and kept in the dark and at room temperature for 30 min, and an absorbance at 492 nm was monitored. Results are measured based on Total LDH as 100%.

[3] = target: T1, formyl peptide receptor 1 (FPR1) (Homo sapiens, UniProt P21462); assay: Receptor test: competition with fluorescent FNLFNYK for binding to FPR1 on human neutrophils; settings: membranes of human neutrophils; read-out: inhibition of FNLFNYK bound to FPR1, IC50
T1 construct: the effect of FNLFNYK combined with FPR1 on the membranes of human neutrophils; endogenous in cells; host or cells: human neutrophils
T1 sequence (P21462 1-350): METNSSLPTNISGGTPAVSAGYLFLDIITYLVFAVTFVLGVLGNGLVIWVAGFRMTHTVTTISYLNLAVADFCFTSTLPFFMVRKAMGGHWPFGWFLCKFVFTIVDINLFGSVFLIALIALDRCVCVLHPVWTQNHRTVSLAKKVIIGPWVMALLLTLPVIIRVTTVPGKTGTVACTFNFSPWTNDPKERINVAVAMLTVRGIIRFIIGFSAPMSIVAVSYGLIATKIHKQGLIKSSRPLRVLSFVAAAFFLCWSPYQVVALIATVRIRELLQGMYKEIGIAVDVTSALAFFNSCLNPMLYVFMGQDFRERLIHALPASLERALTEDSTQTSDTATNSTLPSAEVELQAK
Excerpt: Membranes of human neutrophils contain fMLF receptor, formyl peptide receptor 1 (FPR1), with which formyl-NIe-Leu-Phe-NIe-Tyr-Lys (FNLFNYK) carrying the fluorescence property was combined with FPR1 and competed with the candidate compound for receptor binding. Therefore, by binding with the receptor, it was possible to further clarify whether the compound interacts with the receptor.

human neutrophils [4] = assay: cells; assay type: cell-based; settings: Neutrophil, mean ± SEM
Protocol: Degranulation of azurophilic granules was determined by elastase release as described above. Experiments were performed using MeO-Suc-[…]-nitroanilide as the elastase substrate. […] Results are expressed as the percentage of elastase release in the drug-free control group, DMSO. Tables 5 and 6 explore whether there is an anti-inflamatory effect in the dipeptide derivatives. Because ferricytochrome c cannot penetrate cell membranes, it reacts with superoxide anion extracellularly. Also, there are absorptive reactions at 550 nm, and differences among the absorptive reactions can be used to evaluate the influence on the release of superoxide anion. The elastase is released by degranulation as the neutrophil is activated. Tables 5 and 6 use the substrate, MeO-Suc-[…]-nitroanilide, with the specificity for reacting with the elastase so as to evaluate the influence of the candidate compound on the elastase release. Blood was taken from healthy human donors (20-32 years old) by venipuncture, following a protocol approved by the Institutional Review Board at Chang Gung Memorial Hospital. Neutrophils were isolated by a standard method of dextran sedimentation prior to centrifugation in a Ficoll Hypaque gradient and the hypotonic lysis of erythrocytes. […] The degranulation of azurophilic granules was determined by elastase release as described above. Experiments were performed using MeO-Suc-[…]-nitroanilide as the elastase substrate. Briefly, after supplementation with MeO-Suc-[…]-nitroanilide ([…] neutrophils (6×10^5 ml^-1) were equilibrated at 37° C. for 2 min and incubated with drugs for 5 min. […] The results are expressed as the percentage of elastase release in the drug-free control group.

[5] = tested on: MAPKs (ERK, p38 and JNK) and Akt; assay: Western blot: phosphorylation of MAPKs (ERK, p38, JNK) and Akt in fMLF-stimulated neutrophils; assay type: cell-based, human; settings: HCH6-1 10 μM pre-processed 5 min; fMLF 3 nM, 30 sec
Excerpt: Mitogen-activated protein kinases (MAPKs) and the expression of Akt phosphorylation are closely related to the regulation of cell inflammatory response. By specific binding of antibodies, each compound's influence on protein expression activated by different signals was observed. As to neutrophils, MAPKs (ERIK, p38, and JNK) and Akt signal transduction pathways are involved in the regulation of superoxide anion generation and elastase release. It is can be seen from the above-mentioned experiments that HCH6-1 is capable of competitively inhibiting superoxide anion generation and elastase release. Whether downstream MAPKs and Akt signal transduction pathways of FPR1 were involved in the regulation of superoxide anion generation and elastase release is explored below.
The experimental conditions were as follows. HCH6-1 (10 μM) was pre-processed for 5 min, followed by stimulus of fMLF (3-30 nM) for 30 sec.

IC50 (human neutrophils [1]; WKYMVm, mean ± SEM, n = 4 or 8, Table 5, read-out: Superoxide anion WKYMVm IC50): 4980 ± 270 nM
IC50 (human neutrophils [1]; WKYMVm/CB, mean ± SEM, n = 3, Table 4, read-out: WKYMVm/CB O2•− generation (IC50)): 4830 ± 660 nM
IC50 (human neutrophils [1]; human neutrophils triggered by fMLF, read-out: IC50 of inhibitory effect (superoxide anion, fMLF) restated in text): 320 ± 30 nM
IC50 (human neutrophils [1]; human neutrophils, fMLF/CB, mean ± SEM, n = 3, Table 4, read-out: fMLF/CB O2•− generation (IC50)): 230 ± 20 nM
IC50 (human neutrophils [1]; human neutrophils, fMLF, mean ± SEM, n = 4 or 8, Table 5, read-out: Superoxide anion fMLF IC50): 320 ± 30 nM
IC50 (human neutrophils [1]; human neutrophils, fMLP/CB, mean ± SEM, n = 3, Table 1, read-out: Anti-inflammation O2•− generation (IC50)): 230 ± 20 nM
melting point: 174 to 176 °C
IC50 [3]: 2020 ± 340 nM
IC50 (human neutrophils [4]; WKYMVm, n = 4 or 8, Table 6, read-out: Elastase release WKYMVm IC50): 5220 ± 700 nM
IC50 (human neutrophils [4]; WKYMVm/CB, n = 3, Table 4, read-out: WKYMVm/CB NE release (IC50)): 4610 ± 720 nM
IC50 (human neutrophils [4]; fMLF, n = 4 or 8, Table 6, read-out: Elastase release fMLF IC50): 570 ± 70 nM
IC50 (human neutrophils [4]; fMLF/CB, n = 3, Table 4, read-out: fMLF/CB NE release (IC50)): 600 ± 70 nM
IC50 (human neutrophils [4]; fMLP/CB, n = 3, Table 1, read-out: Anti-inflammation NE release (IC50)): 600 ± 70 nM
SMILES: COC(=O)[C@@H](Cc1ccccc1)NC(=O)[C@H](Cc1c[nH]c2ccccc12)NC(=O)c1ccccc1 [Compound 3, N—(N-Benzoyl-L-tryptophanyl)-D-phenylalanine methyl ester] (Bz-Trp-[dF]-OMe)
selectivity for FPR1/2 and FPR1 (difference WKYMVm vs fMLF) (human neutrophils [1]; superoxide anion, WKYMVm vs fMLF): 15 fold
toxicity to cells (LDH release) during a long period (human neutrophils [2]; HCH6-1 30 μM, 120 min, FIG. 1(b)): no significant toxicity
toxicity to neutrophils (LDH release) (human neutrophils [2]; different concentrations, 15 min, FIG. 1(a)): not the results of toxicity to the neutrophils
phosphorylation for MAPKs (ERK, p38 and JNK) and Akt [5]: significantly suppressed phosphorylation
